# Laboratory results from US20240041877A1, “DOSAGE REGIME AND METHOD FOR TREATING PULMONARY ARTERIAL HYPERTENSION” (Altavant Sciences GmbH, priority 2019, published 2024).
# Test: Part 2 (MAD): plasma pharmacokinetics after BID oral KAR5585 for 14 days (incl. accumulation ratios and dose proportionality)
# [1] = KAR5585 400 mg BID fed, Cohort 4, Day 1 PM, geo. mean
# [2] = KAR5585 400 mg BID fed, Cohort 4, Day 1 PM, mean
# [3] = KAR5585 400 mg BID fed, Cohort 4, Day 7 AM, Day 7/Day 1 accumulation ratio, geo. mean
# [4] = KAR5585 400 mg BID fed, Cohort 4, Day 7 AM, Day 7/Day 1 accumulation ratio, mean
# [5] = KAR5585 400 mg BID fed, Cohort 4, Day 7 AM, geo. mean
# [6] = KAR5585 400 mg BID fed, Cohort 4, Day 7 AM, mean
# [7] = KAR5585 400 mg BID fed, Cohort 4, Day 7 PM, Day 7/Day 1 accumulation ratio, geo. mean
# [8] = KAR5585 400 mg BID fed, Cohort 4, Day 7 PM, Day 7/Day 1 accumulation ratio, mean
# [9] = KAR5585 400 mg BID fed, Cohort 4, Day 7 PM, geo. mean
# [10] = KAR5585 400 mg BID fed, Cohort 4, Day 7 PM, mean
# [11] = KAR5585 400 mg BID fed, Cohort 4, Day 14 AM, Day 14/Day 1 accumulation ratio, geo. mean
# [12] = KAR5585 400 mg BID fed, Cohort 4, Day 14 AM, Day 14/Day 1 accumulation ratio, mean
# [13] = KAR5585 400 mg BID fed, Cohort 4, Day 14 AM, geo. mean
# [14] = KAR5585 400 mg BID fed, Cohort 4, Day 14 AM, mean
# [15] = power model, PK Day 1 (AM), 100 to 400 mg KAR5585 repeat oral doses, fed
# [16] = power model, PK Day 7 (AM), 100 to 400 mg KAR5585 repeat oral doses, fed
# [17] = power model, PK Day 14 (AM), 100 to 400 mg KAR5585 repeat oral doses, fed
# Excerpt: Food effect was to be evaluated in Part 1, Period 2.
# Pharmacokinetic data were to be summarized descriptively.
smiles,measurement,setting,value
"Nc1nc(O[C@H](c2ccc(Cl)cc2-c2ccccc2)C(F)(F)F)cc(N2CCC3(CC2)CN[C@H](C(=O)O)C3)n1 [KAR5417, (S)-8-(2-amino-6-((R)-1-(5-chloro-[1,1T-biphenyl]-2-yl)-2,2,2-trifluoroeth-oxy)pyrimidin-4-yl)-2,8-diazaspiro[4.5]decane-3-carboxylic acid]",AUC0-24,[1],7430 ng·h/mL
same,AUC0-24/D,[1],9.28 (hr*ng/ml)/mg
same,AUC0-∞,[1],6860 ng·h/mL
same,C12,[1],242 ng/mL
same,Cmax,[1],670 ng/mL
same,Cmax/D,[1],1.68 (ng/ml)/mg
same,t1/2,[1],5.3 h
same,AUC0-12,[2],4590 ng·h/mL
same,AUC0-24,[2],7870 ng·h/mL
same,AUC0-24/D,[2],9.83 (hr*ng/ml)/mg
same,AUC0-∞,[2],7090 ng·h/mL
same,C12,[2],252 ng/mL
same,Cmax,[2],739 ng/mL
same,Cmax/D,[2],1.85 (ng/ml)/mg
same,t1/2,[2],5.31 h
same,RAUC0-12,[3],2.15
same,RCmax,[3],1.81
same,RAUC0-12,[4],2.38
same,RCmax,[4],2.00
same,AUC0-12,[5],6250 ng·h/mL
same,AUC0-∞,[5],7480 ng·h/mL
same,C12,[5],222 ng/mL
same,Cmax,[5],960 ng/mL
same,Cmax/D,[5],2.40 (ng/ml)/mg
same,t1/2,[5],3.89 h
same,AUC0-12,[6],6600 ng·h/mL
same,AUC0-∞,[6],7840 ng·h/mL
same,C12,[6],240 ng/mL
same,Cmax,[6],1000 ng/mL
same,Cmax/D,[6],2.51 (ng/ml)/mg
same,t1/2,[6],3.94 h
same,RAUC0-12,[7],1.50
same,RCmax,[7],1.08
same,RAUC0-12,[8],1.63
same,RCmax,[8],1.18
same,AUC0-12,[9],4360 ng·h/mL
same,AUC0-24,[9],10600 ng·h/mL
same,AUC0-24/D,[9],13.3 (hr*ng/ml)/mg
same,AUC0-∞,[9],6450 ng·h/mL
same,C12,[9],356 ng/mL
same,Cmax,[9],574 ng/mL
same,Cmax/D,[9],1.44 (ng/ml)/mg
same,t1/2,[9],5.08 h
same,AUC0-12,[10],4610 ng·h/mL
same,AUC0-24,[10],11200 ng·h/mL
same,AUC0-24/D,[10],14.0 (hr*ng/ml)/mg
same,AUC0-∞,[10],6520 ng·h/mL
same,C12,[10],396 ng/mL
same,Cmax/D,[10],1.52 (ng/ml)/mg
same,t1/2,[10],5.10 h
same,RAUC0-12,[11],1.43
same,RCmax,[11],1.35
same,RAUC0-12,[12],1.65
same,RCmax,[12],1.54
same,AUC0-12,[13],4160 ng·h/mL
same,AUC0-24,[13],5410 ng·h/mL
same,AUC0-24/D,[13],13.5 (hr*ng/ml)/mg
same,AUC0-∞,[13],8120 ng·h/mL
same,C12,[13],140 ng/mL
same,C24,[13],73.3 ng/mL
same,Cmax,[13],717 ng/mL
same,Cmax/D,[13],1.79 (ng/ml)/mg
same,t1/2,[13],30.4 h
same,AUC0-24,[14],5660 ng·h/mL
same,AUC0-24/D,[14],14.1 (hr*ng/ml)/mg
same,AUC0-∞,[14],8500 ng·h/mL
same,C12,[14],149 ng/mL
same,Cmax,[14],749 ng/mL
same,Cmax/D,[14],1.87 (ng/ml)/mg
same,t1/2,[14],30.6 h
same,"Dose proportionality analysis, AUC0-12: Intercept estimate",[15],0.828
same,"Dose proportionality analysis, AUC0-inf: Intercept estimate",[15],1.12
same,"Dose proportionality analysis, Cmax: Intercept estimate",[15],0.167
same,"Dose proportionality analysis, AUC0-12: Intercept estimate",[16],2.63
same,"Dose proportionality analysis, Cmax: Intercept estimate",[16],0.393
same,"Dose proportionality analysis, AUC0-12: Intercept estimate",[17],5.18
same,"Dose proportionality analysis, Cmax: Intercept estimate",[17],0.877
